Reference: patent EP4800012A1, “COMPOUND ACTING AS PARP7 INHIBITOR” (Dovetree Medicines Unus, Inc., priority 2023, dated 2025)
Like-named read-outs stand apart in the source and are kept apart here.

Legend:
PARP7 [1] = biological target: T1, PARP7 (Homo sapiens, UniProt Q7Z3E1); experiment: PARP7 TR-FRET binding inhibition (displacement of probe RBN011147)
T1 construct: purchased BPS 80527
T1 sequence (Q7Z3E1 1-657): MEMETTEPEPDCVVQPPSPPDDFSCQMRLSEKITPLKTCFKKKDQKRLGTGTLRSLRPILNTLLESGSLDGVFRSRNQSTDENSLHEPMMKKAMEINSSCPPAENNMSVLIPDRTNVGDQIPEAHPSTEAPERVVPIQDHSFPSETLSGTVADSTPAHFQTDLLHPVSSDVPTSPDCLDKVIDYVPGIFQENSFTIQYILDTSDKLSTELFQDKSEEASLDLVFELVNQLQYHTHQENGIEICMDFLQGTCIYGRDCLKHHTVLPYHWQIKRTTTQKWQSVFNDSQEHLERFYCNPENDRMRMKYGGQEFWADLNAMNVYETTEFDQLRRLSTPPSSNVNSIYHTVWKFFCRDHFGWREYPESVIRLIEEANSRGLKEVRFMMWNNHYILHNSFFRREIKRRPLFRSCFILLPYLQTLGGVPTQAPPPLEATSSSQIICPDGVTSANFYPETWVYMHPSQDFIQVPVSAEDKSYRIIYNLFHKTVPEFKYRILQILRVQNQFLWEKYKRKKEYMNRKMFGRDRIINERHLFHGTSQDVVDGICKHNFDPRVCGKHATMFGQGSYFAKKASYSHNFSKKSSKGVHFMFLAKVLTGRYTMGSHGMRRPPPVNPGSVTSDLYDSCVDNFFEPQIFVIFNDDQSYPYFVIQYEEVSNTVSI
Experimental: The ability of the compound to substitute the probe RBN011147 (Wigle et al., 2020, Cell Chemical Biology 27, 877-887) was tested by a TR-FRET method, and IC50 was calculated to evaluate the binding ability of the compound to PARP7. […]

PARP7 [2] = biological target: T1, PARP7; experiment: Inhibition of the compound on PARP7 protein activity (ADP-ribosylation, chemiluminescence); format: biochemical
NCI-H1373 cells = experiment: Inhibition on NCI-H1373 cell proliferation (Cell-Titer-Glo); format: cell-based; conditions: Homo sapiens, read-out: NCI-H1373 cell proliferation inhibition IC50
Experimental: The inhibitory effect of the compound on PARP7 was evaluated by testing the inhibitory effect of the compound on NCI-H1373 cell proliferation.
NCI-H1373 cells (ATCC, CRL-5866) were cultured in a complete medium, namely, a RPMI-1640 medium (Gibco, 22400089) containing 10% fetal bovine serum (Corning, 35-081-CV).
Negative control wells and positive control wells were added with 50 nL DMSO (Sigma, D2650), respectively.
In "Day 0" detection plate, NCI-H1373 cells were seeded at a density of 600 cells/well (50 µL) in a complete medium into the Day 0 test wells of a 384-well detection plate (Grenier, 781091). Then, 25 µL of Cell-Titer-Glo reagent (Promega, G7573) was added to each well, followed by centrifugation at 1000 rpm at room temperature for 1 minute and incubation at room temperature under shaded conditions for 10 min. Chemiluminescence signals were collected using an Envision (Perkin Elmer, EnVision 2105) to obtain the average value of the Day 0 test values.
In "compound detection plate", NCI-H1373 cells were seeded at a density of 600 cells/well (50 µL) in a complete medium into the negative control wells and the compound detection wells of a 384-well detection plate (Grenier, 781091), and 50 µL of cell culture medium was added to the positive control wells, followed by centrifugation at 1000 rpm at room temperature for 1 minute and placing in a cell incubator at 37°C, 5% CO2 for incubation for 6 days. […] Chemiluminescence signals were collected using an Envision (Perkin Elmer, EnVision 2105). The test values for each compound well, negative control well, and positive control well were obtained.
The proliferation inhibition ratio formula is as follows: [formula]
The average value of the negative control = the average value of the Day 6 test values of each negative control well minus the average value of the Day 0 test values
The average value of the positive control = the average value of the Day 6 test values of each positive control well
The average value of the compound test = (the Day 6 test value of compound test well 1 + the Day 6 test value of compound test well 2)/2 - the average value of the Day 0 test values

[3] = TR-FRET, Biotin-labeled probe RBN011147; read-out: PARP7 binding inhibition IC50
[4] = Histone H1 coated plate, Biotin-Labeled NAD+, 2 h at room temperature, chemiluminescence; read-out: PARP7 activity inhibition IC50
[5] = 144 h, NCI-H1373 cells, incubation for 6 days, Cell-Titer-Glo

| SMILES | IC50 (PARP7 [1]; [3]) [nM] | IC50 (PARP7 [2]; [4]) [nM] | IC50 (NCI-H1373 cells; [5]) [nM] | IC50 (NCI-H1373 cells; NCI-H1373, 144 h) [nM] | IC50 (PARP7 [1]; read-out: PARP7 binding inhibition IC50; TR-FRET, Biotin-labeled probe RBN011147) [nM] | IC50 (PARP7 [2]; read-out: PARP7 activity inhibition IC50; Histone H1 coated plate, Biotin-Labeled NAD+, 2 h at room temperature, chemiluminescence) [nM] |
| --- | --- | --- | --- | --- | --- | --- |
| O=C(NCCCC(Nc1cn[nH]c(=O)c1C(F)(F)F)C1CC1)c1cnc(-c2ncc(C(F)(F)F)s2)cn1 (stereo not drawn) [Example 54] | 10 to 30 | 3 to 10 | > 3000 |  |  |  |
| O=C(NCCCC(Nc1cn[nH]c(=O)c1C(F)(F)F)C1CC1)c1ccc(-c2ncc(C(F)(F)F)s2)cc1 (stereo not drawn) [Example 55] | < 10 | < 3 | 1000 to 3000 |  |  |  |
| CC(CCCNC(=O)c1ccc(-c2ncc(N(C)C3CC3)s2)cc1)Nc1cn[nH]c(=O)c1C(F)(F)F (stereo not drawn) [Example 56] | < 10 | < 3 | 300 to 1000 |  |  |  |
| CC(CCCNC(=O)c1ccc(-c2ncc(N(C)C)s2)cc1)Nc1cn[nH]c(=O)c1C(F)(F)F (stereo not drawn) [Example 57] | < 10 | 3 to 10 |  | 1000 to 3000 |  |  |
| CC(CCCNC(=O)c1ccc(-c2ncc(N3CCCCC3)s2)cc1)Nc1cn[nH]c(=O)c1C(F)(F)F (stereo not drawn) [Example 58] | < 10 | 3 to 10 | > 3000 |  |  |  |
| CC(CCCNC(=O)c1ncc(-c2ncc(N3CC(F)C3)cn2)cc1F)Nc1cn[nH]c(=O)c1C(F)(F)F (stereo not drawn) [Example 72] | < 10 | < 3 | 300 to 1000 |  |  |  |
| CC(CCCNC(=O)c1ncc(-c2ncc(C(F)(F)F)cn2)cc1F)Nc1cn[nH]c(=O)c1C(F)(F)F (stereo not drawn) [Example 73] | < 10 | < 3 | 300 to 1000 |  |  |  |
| CC(CCCNC(=O)c1ncc(-c2ncc(C(F)F)s2)cc1F)Nc1cn[nH]c(=O)c1C(F)(F)F (stereo not drawn) [Example 74] | < 10 | < 3 | > 3000 |  |  |  |
| CC(CCCNC(=O)c1ncc(-c2ncc(C(F)(F)F)s2)cc1F)Nc1cn[nH]c(=O)c1C(F)(F)F (stereo not drawn) [Example 75] | < 10 | < 3 | < 300 |  |  |  |
| Cc1c(CCC(=O)Nc2ncc(-c3ncc(C(F)(F)F)cn3)cc2F)c[nH]c(=O)c1C(F)(F)F [Example 76] | 10 to 30 | 3 to 10 | > 3000 |  |  |  |
| CC(CCCNC(=O)c1ncc(-c2ncc(C(F)(F)F)cn2)s1)Nc1cn[nH]c(=O)c1C(F)(F)F (stereo not drawn) [Example 151] | 30 to 100 | 3 to 10 | > 3000 |  |  |  |
| O=C(NCCC[C@H]1CCN1c1cn[nH]c(=O)c1C(F)(F)F)c1cnc(-c2ncc(C(F)(F)F)cn2)cn1 [Example 164] |  |  | > 3000 |  | > 100 | > 100 |
| CC(CCCNC(=O)c1cnc(-n2cc(C(F)(F)F)cn2)cn1)Nc1cn[nH]c(=O)c1C(F)(F)F (stereo not drawn) [Example 175] | 10 to 30 | < 3 | 300 to 1000 |  |  |  |
| CC(CCCNC(=O)c1ccc(-n2cc(C(F)(F)F)cn2)cc1F)Nc1cn[nH]c(=O)c1C(F)(F)F (stereo not drawn) [Example 176] | < 10 | < 3 | < 300 |  |  |  |
| CC(CCCNC(=O)c1ncc(-n2cc(C(F)(F)F)cn2)cc1F)Nc1cn[nH]c(=O)c1C(F)(F)F (stereo not drawn) [Example 183] | < 10 | < 3 | 300 to 1000 |  |  |  |

The next lines start with results.

| IC50 (PARP7 [1]; [3]) [nM] | IC50 (PARP7 [2]; [4]) [nM] | IC50 (NCI-H1373 cells; [5]) [nM] | SMILES | IC50 (NCI-H1373 cells; NCI-H1373, 144 h) [nM] | IC50 (PARP7 [1]; read-out: PARP7 binding inhibition IC50; TR-FRET, Biotin-labeled probe RBN011147) [nM] | IC50 (PARP7 [2]; read-out: PARP7 activity inhibition IC50; Histone H1 coated plate, Biotin-Labeled NAD+, 2 h at room temperature, chemiluminescence) [nM] |
| --- | --- | --- | --- | --- | --- | --- |
| 30 to 100 | 30 to 100 | > 3000 | CC(CCCNC(=O)c1ccc2c(=O)n(C)cnc2c1)Nc1cn[nH]c(=O)c1C(F)(F)F (stereo not drawn) [Example 59] |  |  |  |
| < 10 | < 3 | 300 to 1000 | CC(CCCNC(=O)c1ccc(-c2cscn2)nc1)Nc1cn[nH]c(=O)c1C(F)(F)F (stereo not drawn) [Example 60] |  |  |  |
| < 10 | < 3 | < 300 | CC(CCCNC(=O)c1ccc(-n2cc(C(F)(F)F)cn2)cc1)Nc1cn[nH]c(=O)c1C(F)(F)F (stereo not drawn) [Example 61] |  |  |  |
| 30 to 100 | 30 to 100 | > 3000 | CC(CCCNC(=O)c1ccc(-n2cccn2)c(F)c1)Nc1cn[nH]c(=O)c1C(F)(F)F (stereo not drawn) [Example 62] |  |  |  |
| < 10 | < 3 | < 300 | CC(CCCNC(=O)c1ccc(-c2ncc(N(C)C)cn2)cc1)Nc1cn[nH]c(=O)c1C(F)(F)F (stereo not drawn) [Example 63] |  |  |  |
| > 100 | 10 to 30 | > 3000 | CC(CCCNC(=O)c1ccc(-c2ccc(=O)n(C)n2)cc1)Nc1cn[nH]c(=O)c1C(F)(F)F (stereo not drawn) [Example 64] |  |  |  |
| 30 to 100 | 30 to 100 | > 3000 | COc1nc(-c2ccc(C(=O)NCCCC(C)Nc3cn[nH]c(=O)c3C(F)(F)F)cc2)cs1 (stereo not drawn) [Example 65] |  |  |  |
| > 100 | 30 to 100 | > 3000 | Cc1cc(=O)n(C)nc1-c1ccc(C(=O)NCCCC(C)Nc2cn[nH]c(=O)c2C(F)(F)F)cc1 (stereo not drawn) [Example 66] |  |  |  |
| < 10 | < 3 | 300 to 1000 | CC(CCCNC(=O)c1ccc(-c2ncc(C#N)cc2F)cc1)Nc1cn[nH]c(=O)c1C(F)(F)F (stereo not drawn) [Example 67] |  |  |  |
| < 10 | < 3 | 300 to 1000 | Cc1cc(-c2ccc(C(=O)NCCCC(C)Nc3cn[nH]c(=O)c3C(F)(F)F)cc2)ncc1C#N (stereo not drawn) [Example 68] |  |  |  |
| < 10 | < 3 | < 300 | CC(CCCNC(=O)c1ccc(-c2ncc(C(F)(F)F)s2)cc1F)Nc1cn[nH]c(=O)c1C(F)(F)F (stereo not drawn) [Example 77] |  |  |  |
| 10 to 30 | 3 to 10 | > 3000 | CC(CCCNC(=O)c1ccc(-c2nc(C(F)(F)F)no2)cc1)Nc1cn[nH]c(=O)c1C(F)(F)F (stereo not drawn) [Example 78] |  |  |  |
| < 10 | 3 to 10 | > 3000 | CC(CCCNC(=O)c1ccc(-c2cc(C(F)(F)F)on2)cc1)Nc1cn[nH]c(=O)c1C(F)(F)F (stereo not drawn) [Example 79] |  |  |  |
| 30 to 100 | 10 to 30 | > 3000 | CC(CCCNC(=O)c1ccc(-c2csc(C(F)(F)F)n2)cc1)Nc1cn[nH]c(=O)c1C(F)(F)F (stereo not drawn) [Example 80] |  |  |  |
| 30 to 100 | 30 to 100 | > 3000 | CC(CCCNC(=O)c1ccc(-c2nc(C(F)(F)F)cs2)cc1)Nc1cn[nH]c(=O)c1C(F)(F)F (stereo not drawn) [Example 81] |  |  |  |
| 30 to 100 | 3 to 10 | > 3000 | CC(CCCNC(=O)c1ccc(-c2nnc(C(F)(F)F)s2)cc1)Nc1cn[nH]c(=O)c1C(F)(F)F (stereo not drawn) [Example 82] |  |  |  |
| 10 to 30 | < 3 | 1000 to 3000 | CC(CCCNC(=O)c1ccc(-c2ncc(C3CCCC3)s2)cc1)Nc1cn[nH]c(=O)c1C(F)(F)F (stereo not drawn) [Example 155] |  |  |  |
| < 10 | < 3 | 1000 to 3000 | CC(CCCNC(=O)c1ccc(-c2csc(C(F)(F)F)n2)nc1)Nc1cn[nH]c(=O)c1C(F)(F)F (stereo not drawn) [Example 177] |  |  |  |
| 10 to 30 | < 3 | > 3000 | CC(CCCNC(=O)c1cnc(-c2cscn2)c(F)c1)Nc1cn[nH]c(=O)c1C(F)(F)F (stereo not drawn) [Example 178] |  |  |  |
| 10 to 30 | < 3 | > 3000 | CC(CCCNC(=O)c1ccc(-c2cscn2)cc1F)Nc1cn[nH]c(=O)c1C(F)(F)F (stereo not drawn) [Example 179] |  |  |  |
| 30 to 100 | 3 to 10 | > 3000 | CC(CCCNC(=O)c1ncc(-c2cscn2)cc1F)Nc1cn[nH]c(=O)c1C(F)(F)F (stereo not drawn) [Example 182] |  |  |  |
| < 10 | < 3 | 300 to 1000 | CC(CCCNC(=O)c1cnc(-c2ncc(C(F)(F)F)s2)c(F)c1)Nc1cn[nH]c(=O)c1C(F)(F)F (stereo not drawn) [Example 184] |  |  |  |
